US20060040945A1, “Annellated pyrrole compounds as proton pump inhibitors for treating ulcer” (MERCKLE GMBH, priority 2002, published 2006)
Read-outs that look alike come from different tables or passages of the source. Values belong to the molecule of their own block, whether it stands above or below them.

How the values were obtained:
gastric H,K-ATPase [1] = molecular target: T1, gastric H,K-ATPase (Sus scrofa, UniProt P19156); experiment: K+-stimulated, SCH28080-sensitive H,K-ATPase activity of pig gastric microsomes (32Pi release from ATP); format: biochemical; details: for IC50: pig gastric microsomes, pH 7.0, 20 minutes at 37° C., read-out: half-maximal inhibitory concentration (IC50), H,K-ATPase activity; for effect on H,K-ATPase activity: non-physiological concentrations greater than 10^−7 M; for inhibitory activity against H,K-ATPase: physiological concentrations (10^−9-10^−8 M); for inhibitory effect on microsomal H,K-ATPase activity: concentrations up to 10^−4 M
T1 construct: Reaction mixtures for assay of K^+-stimulated ATPase activity in pig gastric microsomal membranes contained 5 μg membrane protein; from tissue; host or cells: pig gastric fundic mucosa, G1 microsomal fraction
Experimental: Strategy. Microsomal gastric H,K-ATPase was prepared from pig gastric mucosal homogenates by differential centrifugation. Briefly, pig stomachs obtained at a slaughter-house within 1 hour post mortem were washed with ice-cold 0,25 M sucrose and the fundus was dissected from the cardiac and antral regions. All subsequent prodedures were at 4° C. The mucosa was flooded with saturated NaCl, and the surface mucus and superficial cells wiped off with paper towels. The mucosa was scraped from the underlying connective tissue, suspended (10% w/v) in isolation buffer (0,25 M sucrose, 20 mM HEPES, pH 7,4, 1 mM EDTA, 1 mM phenylmethylsulfonyl fluoride), and disrupted by two 10 second bursts at maximum power in a Tissumizer (Tekmar, Cincinnati, Ohio). The homogenate was centrifuged at 20,000 g for 30 minutes, and the supernatant was centrifuged at 10^5 g for 1 hour. The resulting microsomal pellet was resuspended in isolation buffer, and applied to a discontinuous gradient of 7% w/v Ficoll and 34% sucrose (both in isolation buffer). After 3 hours at 32,500 rpm (Sorvall AH 629 rotor), the microsomal band (G1) recovered from the 7% Ficoll interface was resuspended to 10 mg/ml in 15 mM PIPES-Tris, pH 6,8, diluted 1:1 with cold 60% sucrose, lyophilized in 0,5 ml aliquots, and stored at −70° C. Gl microsomes were about 0,1 microns in diameter, were enriched in H.K.-ATPase activity, and more than 80% of their protein content banded at 94 kDa by SDS-PAGE. ATP hydrolytic activity of microsomes was quantitated in terms of inorganic phosphate release from substrate ATP and measured in graded concentrations (ranging from 10^−9M to 10^−4M) of ML 3000, and a wide range of other compounds. Reaction mixtures for assay of K^+-stimulated ATPase activity in pig gastric microsomal membranes contained 5 μg membrane protein, 100 mM Tris-acetate, pH 7.0, 1 mM MgCl2, 1 mM NaNa, 0,1 mM EGTA, 5 μM ATP (γ-^32P-ATP, 10 Ci/mmol, NEN, Boston, Mass.), 0-10 mM KCl, and 0-100 μM SCH 28080. After 20 minutes incubation at 37° C., reactions were stopped by addition of 10% w/v activated charcoal (Sigma), 5,5% w/v trichloroacetic acid, vortexed vigorously, and centrifuged at 14,000 g for 10 minutes at 4° C. Inorganic phosphate (γ-^32Pi) content of the supernatant was measured by scintillation counting. […] Graphs with standard error bars present inter-assay data variance in three independent assays in each of which ATPase activities in three separate but identical reaction conditions were measured. Graphs without standard error bars represent the mean ATPase activities in three separate but identical reaction conditions in one of at least three independent assays; typical data are shown in these cases.
The wide range of published PPI IC50 values for microsomal H,K-ATPase reflects the mechanistic necessity for compound acidification to allow formation of a thiol-reactive […] intermediate which then irreversibly derivatizes H,K-ATPase a subunit cysteine residues leading to enzyme inhibition. […] Microsomal vesicle preparations vary widely in their ion-tightness, which affects the extent to which internal pH can be lowered by H,K-ATPase turnover, and therefore the extent to which omeprazole diffusing into the vesicle can be acidified and activated. Alternatively, prior in vitro acidification of omeprazole ensures induction of its inhibitory properties, and is essential in assays carried out using ion-permeable microsomal H,K-ATPase preparations. For this reason, the omeprazole inhibitory data shown in FIG. 2 were derived using omeprazole acidified to pH 6.1 and incubated with the enzyme for 30 min at the same pH (8).
Given that PPIs are irreversible inhibitors of H,K-ATPase activity, covalently binding to the catalytic α-subunit, it was determined whether ML 3000 inhibition of H,K-ATPase was reversible or irreversible. […]

[2] = tested on: human gastric adenocarcinoma (AGS) cells; experiment: IL-8 secretion by AGS cells into culture medium (ELISA); format: cell-based; details: 6 hr
[3] = tested on: rabbit gastric parietal cells; experiment: [14C]-aminopyrine (acid) accumulation in isolated gastric parietal cells; format: cell-based; details: for effect on acid accumulation by isolated rabbit parietal cells: up to concentrations of 10^−4 M; for IC50: Oryctolagus cuniculus
Experimental: Strategy. Gastric parietal cells were isolated from New Zealand White Rabbits by pronase/collagenase digestion of fundic mucosa followed by enrichment of cells on discontinuous Nycodenz gradients in a manner known per se. Aminopyrine accumulation into parietal cells was assessed in 96 well filter plates with Durapore membranes. […] All determinations were performed in quadruplicate. Basal aminopyrine accumulation was determined as aminopyrine accumulation into […] (a reflection of non-specific isotope trapping).

gastric H,K-ATPase [4] = details: cited from earlier work; for IC50: literature (refs 6, 7), read-out: published IC50, H,K-ATPase
gastric H,K-ATPase [5] = molecular target: T1, gastric H,K-ATPase; experiment: K+-stimulated, SCH28080-sensitive H,K-ATPase activity of pig gastric microsomes (32Pi release from ATP); format: biochemical; details: concentrations up to 10^−3 M
[6] = Plasma ML3000 level after immediate release dosage forms; format: in vivo; details: immediate release dosage form
[7] = AGS cells without IL-1β stimulation, read-out: IC50, baseline IL-8 secretion

T1 sequence (P19156 2-1034 limits assumed): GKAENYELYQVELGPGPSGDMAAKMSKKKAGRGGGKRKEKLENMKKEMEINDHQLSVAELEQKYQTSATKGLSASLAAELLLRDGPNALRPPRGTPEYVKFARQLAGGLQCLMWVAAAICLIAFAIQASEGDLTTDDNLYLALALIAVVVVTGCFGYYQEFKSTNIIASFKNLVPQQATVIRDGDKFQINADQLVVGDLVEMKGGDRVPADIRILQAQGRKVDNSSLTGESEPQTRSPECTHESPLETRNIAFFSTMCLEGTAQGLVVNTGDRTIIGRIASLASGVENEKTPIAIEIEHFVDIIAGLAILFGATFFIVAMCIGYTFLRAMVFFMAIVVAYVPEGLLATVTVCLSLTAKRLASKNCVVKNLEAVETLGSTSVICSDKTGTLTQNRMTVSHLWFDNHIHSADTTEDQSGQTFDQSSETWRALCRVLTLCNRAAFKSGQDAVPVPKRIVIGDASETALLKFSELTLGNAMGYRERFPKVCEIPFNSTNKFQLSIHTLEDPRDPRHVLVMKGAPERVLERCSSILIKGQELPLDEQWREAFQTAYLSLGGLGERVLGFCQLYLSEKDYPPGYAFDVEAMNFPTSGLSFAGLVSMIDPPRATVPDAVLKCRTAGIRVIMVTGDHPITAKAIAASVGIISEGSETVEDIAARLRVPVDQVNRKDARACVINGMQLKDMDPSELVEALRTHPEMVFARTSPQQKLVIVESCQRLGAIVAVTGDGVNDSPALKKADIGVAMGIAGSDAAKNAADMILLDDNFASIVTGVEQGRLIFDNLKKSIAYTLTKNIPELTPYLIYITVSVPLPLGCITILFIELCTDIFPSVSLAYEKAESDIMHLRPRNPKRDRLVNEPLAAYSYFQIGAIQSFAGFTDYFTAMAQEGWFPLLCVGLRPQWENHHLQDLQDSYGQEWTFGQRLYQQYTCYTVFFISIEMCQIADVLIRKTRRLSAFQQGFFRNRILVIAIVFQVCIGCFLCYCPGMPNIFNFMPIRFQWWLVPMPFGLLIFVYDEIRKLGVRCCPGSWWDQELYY
T1 sequence (P18434 whole entry partner): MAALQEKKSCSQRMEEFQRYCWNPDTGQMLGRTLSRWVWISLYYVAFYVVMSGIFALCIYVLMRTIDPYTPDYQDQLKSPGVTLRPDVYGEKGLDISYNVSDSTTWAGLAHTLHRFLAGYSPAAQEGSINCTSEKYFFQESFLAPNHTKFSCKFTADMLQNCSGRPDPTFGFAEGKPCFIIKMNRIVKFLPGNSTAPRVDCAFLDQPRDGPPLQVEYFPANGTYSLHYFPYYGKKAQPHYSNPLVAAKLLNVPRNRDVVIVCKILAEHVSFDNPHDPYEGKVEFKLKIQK

IC50 (gastric H,K-ATPase [1]): 30 µM
SMILES: CCCCC/C=C\C/C=C\C/C=C\C/C=C\CCCC(=O)O [Arachidonic acid]

SMILES: CCCCC/C=C\C[C@@H](O)/C=C/C=C/C=C\[C@@H](O)CCCC(=O)O [LTB4, leukotriene B4]
effect on H,K-ATPase activity (gastric H,K-ATPase [1]): significant attentuation of H,K-ATPase activity
inhibitory activity against H,K-ATPase (gastric H,K-ATPase [1]): neither leukotriene showed any inhibitory activity

IC50 [2, 7]: ~0.4 µM
inhibition at 10 µM (gastric H,K-ATPase [1]; at 10^−5 M): ~20%
SMILES: COC1(c2cc(F)cc(OCc3ccc4c(ccc(=O)n4C)c3)c2)CCOCC1 [ZD-2138]

inhibitory effect on microsomal H,K-ATPase activity (gastric H,K-ATPase [1]): without inhibitory effects
SMILES: CS(=O)(=O)Nc1ccc([N+](=O)[O-])cc1OC1CCCCC1 [NS 398]
effect on acid accumulation by isolated rabbit parietal cells [3]: no effect

IC50 (gastric H,K-ATPase [1]): 45 µM
SMILES: CCCCC[C@H](O)/C=C/[C@H]1[C@H](O)CC(=O)[C@@H]1C/C=C\CCCC(=O)O [prostaglandin E2]

inhibitory effect on microsomal H,K-ATPase activity (gastric H,K-ATPase [1]): without inhibitory effects
SMILES: COc1ccc2cc([C@H](C)C(=O)O)ccc2c1 [naproxen]

inhibitory effect on microsomal H,K-ATPase activity (gastric H,K-ATPase [1]): without inhibitory effects
SMILES: COc1ccc2c(c1)c(CC(=O)O)c(C)n2C(=O)c1ccc(Cl)cc1 [indomethacin]
Ki (gastric H,K-ATPase [4]; previously reported (ref 10)): 670 µM

SMILES: COC(=O)c1cc2nc([S+]([O-])Cc3ncccc3C)[nH]c2cc1C (centres unmarked) [picoprazole]
IC50 (gastric H,K-ATPase [4]): 2 µM

SMILES: Cc1c(OCC(F)(F)F)ccnc1C[S+]([O-])c1nc2ccccc2[nH]1 (centres unmarked) [lansoprazole]
IC50 (gastric H,K-ATPase [4]): 2.1 µM

inhibitory effect on microsomal H,K-ATPase activity (gastric H,K-ATPase [5]): without inhibitory effects
SMILES: CC(=O)Oc1ccccc1C(=O)O [acetyl salicylic acid]
effect on acid accumulation by isolated rabbit parietal cells [3]: no effect

IC50 ([3]; 100 μM histamine, read-out: IC50, histamine-stimulated acid accumulation): 40 µM
IC50 ([3]; read-out: IC50, forskolin-stimulated acid accumulation): ~45 µM
IC50 [2, 7]: 0.75 µM
IC50 ([2]; AGS cells, IL-1β (20 ng/ml), read-out: IC50, IL-1β-stimulated IL-8 secretion): 30 µM
reversibility of H,K-ATPase inhibition on dilution (gastric H,K-ATPase [1]; diluted from 100 μM to 3.3 μM): restored H,K-ATPase activity
effect of acidification on H,K-ATPase inhibitory profile (gastric H,K-ATPase [1]; half-maximal inhibitory concentration titrated to different pHs): no significant effect
IC50 (gastric H,K-ATPase [1]): 15 µM
plasma ML3000 concentration maintained for 8 hours ([6]; dose 2.5 mg/kg): above 100 ng/mL
plasma ML3000 concentration maintained for 8 hours ([6]; dose 5 mg/kg): > 200 ng/mL
SMILES: CC1(C)Cc2c(-c3ccccc3)c(-c3ccc(Cl)cc3)c(CC(=O)O)n2C1 [ML 3000, [6-(4-chlorophenyl)-2,2-dimethyl-7-phenyl-2,3-dihydro-1H-pyrrolizine-5-yl]-acetic acid]

SMILES: CCCCC/C=C\C\C=C/C=C/C=C/[C@@H](SC[C@H](N)C(=O)NCC(=O)O)[C@@H](O)CCCC(=O)O [LTD4, leukotriene D4]
effect on H,K-ATPase activity (gastric H,K-ATPase [1]): significant attentuation of H,K-ATPase activity
inhibitory activity against H,K-ATPase (gastric H,K-ATPase [1]): neither leukotriene showed any inhibitory activity
